Molecular target: T1, human HDAC7 (Homo sapiens, UniProt Q8WUI4)
T1 construct: purchased SignalChem Pharmaceutical Inc
T1 sequence (Q8WUI4 1-952): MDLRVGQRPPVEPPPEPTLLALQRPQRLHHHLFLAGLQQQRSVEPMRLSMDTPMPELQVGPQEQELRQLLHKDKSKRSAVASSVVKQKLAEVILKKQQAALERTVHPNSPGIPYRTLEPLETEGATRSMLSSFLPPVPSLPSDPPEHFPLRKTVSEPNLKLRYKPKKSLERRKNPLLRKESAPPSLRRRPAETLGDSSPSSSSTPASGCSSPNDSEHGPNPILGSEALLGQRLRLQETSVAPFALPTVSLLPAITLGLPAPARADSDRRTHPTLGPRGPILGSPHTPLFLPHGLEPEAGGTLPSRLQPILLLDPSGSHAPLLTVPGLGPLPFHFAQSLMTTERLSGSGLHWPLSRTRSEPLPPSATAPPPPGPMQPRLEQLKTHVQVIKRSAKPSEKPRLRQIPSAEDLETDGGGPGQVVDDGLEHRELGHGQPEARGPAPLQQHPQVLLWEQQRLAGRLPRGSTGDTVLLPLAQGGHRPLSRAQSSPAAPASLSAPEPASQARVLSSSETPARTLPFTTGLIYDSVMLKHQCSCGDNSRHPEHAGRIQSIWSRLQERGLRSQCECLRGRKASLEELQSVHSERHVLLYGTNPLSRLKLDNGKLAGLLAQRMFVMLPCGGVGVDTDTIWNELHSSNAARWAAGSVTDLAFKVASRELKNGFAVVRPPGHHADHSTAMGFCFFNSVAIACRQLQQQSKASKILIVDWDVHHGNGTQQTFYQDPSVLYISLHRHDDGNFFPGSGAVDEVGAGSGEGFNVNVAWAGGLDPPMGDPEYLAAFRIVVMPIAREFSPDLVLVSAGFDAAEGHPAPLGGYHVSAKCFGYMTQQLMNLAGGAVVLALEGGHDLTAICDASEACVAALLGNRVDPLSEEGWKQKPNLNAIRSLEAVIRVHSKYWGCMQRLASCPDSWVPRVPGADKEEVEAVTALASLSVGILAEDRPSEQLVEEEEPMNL
Assay: HDAC enzyme assay (HDAC-Glo class IIa), HDAC7
Format: biochemical
Conditions: concentrations up to 10 μM
Experimental: Recombinant HDAC6, HDAC7, HDAC1 were obtained from SignalChem Pharmaceutical Inc. (Richmond, BC, Canada), and recombinant human HDAC4 was prepared at Takeda pharmaceutical company. One μL of T-518 diluted with DMSO was added to 75 μL of assay buffer (24 mM Tris–HCl (pH 7.5), 135 mM NaCl, 0.35 mM KCl, 1 mM MgCl2, 0.01% Tween 20, 0.6 mM GSH) in 384 well plates. Two μL of diluted compounds were added to 384 well plates and 2 μL of recombinant HDAC enzymes was added and then centrifuged at 1000 rpm for 10 s. The final concentrations of each HDAC enzyme were as follows, human HDAC1, 170 pM; human HDAC6, […]; human HDAC4, 68 pM; human HDAC7, 13 pM. After incubation for 60 min at room temperature, 4 μL of HDAC-Glo reagent [HDAC-Glo I/II (Promega) for HDAC6 and HDAC1, HDAC-Glo class IIa (Promega) for HDAC4 and HDAC7] was added to start the reaction. After incubation for 20 min at room temperature, the luminescence was measured by Envision plate reader (PerkinElmer, Waltham, MA, USA). For experiments under the condition of 0 min preincubation, 4 μL of HDAC-Glo reagent was added at first to the 384 well plates including diluted compounds. […] After centrifugation at 1000 rpm for 10 s. and then incubation for 20 min at room temperature, the luminescence was measured by Envision. […] The inhibitory activity of T-518 was expressed as the value of IC50. […]

O=C1c2cc(-c3nnc(C(F)F)o3)cnc2CN1[C@@H]1CCCC[C@H]1NC(=O)C(F)(F)C(F)(F)F [T-518, N-[(1R,2R)-2-{3-[5-(difluoromethyl)-1,3,4-oxadiazol-2-yl]-5-oxo-5H,6H,7H-pyrrolo[3,4-b]pyridin-6-yl}cyclohexyl]-2,2,3,3,3-pentafluoropropanamide]
inhibition of human HDAC7 enzyme activity: did not obviously inhibit
